The results in this text go back to US10526311B2 (ASTEX THERAPEUTICS LIMITED, priority 2015, dated 2020).

pIC50: −log10 of the molar value. Like-named read-outs stand apart in the source and are kept apart here.

Assay [1] addresses MDM2-p53 interaction (in vitro translated MDM2, biotinylated IP3 peptide) (Homo sapiens, UniProt Q00987). As to the kind of experiment: MDM2-p53 interaction 96-well plate binding assay (ELISA). Particulars: read-out: MDM2 % @ concentration; for inhibition at 0.001 µM: @ 0.0010 μM; for inhibition at 0.1 µM: @ 0.10 μM; for inhibition at 0.03 µM: @ 0.030 μM.
Experimental: The ELISA assay was performed in streptavidin coated plates which were preincubated with 200 μl per well of 1 μg ml^−1 biotinylated IP3 peptide. The plates were ready to use for MDM2 binding after washing the plate with PBS.
The unbound secondary antibody was removed by washing three times with TBS-Tween. The bound HRP activity was measured by enhanced chemiluminesence (ECL™, Amersham Biosciences) using the oxidation of the diacylhydrazide substrate, luminol, to generate a quantifiable light signal. The percentage of MDM2 inhibition at a given concentration is calculated as the [1−(RLU detected in the compound treated sample−RLU negative DMSO control)÷(RLU of DMSO positive and negative controls)]×100 or as the (RLU detected in the compound treated sample÷RLU of DMSO controls)×100. The IC50 was calculated using a plot of % MDM2 inhibition vs concentration and is the average of two or three independent experiments.
The subject of assay [2] is SJSA-1. The assay can be described thus: Protocol B: SJSA-1 CellTiter-Glo cell viability. To be noted: for pIC50: read-out: SJSA1 IC50 (Protocol B), SJSA-1 cells, CellTiter-Glo, 72 hrs; for SJSA1 (Protocol B) % at concentration: SJSA-1, Protocol B, at 10 μM.
Assay [3] concerns SJSA-1 (MDM2 amplified, p53 wild-type osteosarcoma). As to the kind of experiment: Protocol A: SJSA-1 growth inhibition (SRB). Particulars: Homo sapiens, SJSA-1, 72 h, read-out: SJSA-1 IC50 (μM) (Protocol A), SJSA-1, Protocol A (SRB), 72 hrs.
Experimental: Protocol A: SJSA-1 and SN40R2 Assays
Following incubation with the SRB dye at room temperature for 30 min, the plates were washed with 1% acetic acid and left to dry. […] The GI50 was calculated by non-linear regression analysis of the data using Prism v4.0 statistical software.
The mark [4] stands for this setting: Homo sapiens, SJSA-1, 72 h, read-out: SJSA1 IC50 (μM) (Protocol B), SJSA-1, Protocol B (CellTiter-Glo), 72 hrs.

MDM2-p53 interaction (in vitro translated MDM2, biotinylated IP3 peptide), sequence (Q00987 whole entry): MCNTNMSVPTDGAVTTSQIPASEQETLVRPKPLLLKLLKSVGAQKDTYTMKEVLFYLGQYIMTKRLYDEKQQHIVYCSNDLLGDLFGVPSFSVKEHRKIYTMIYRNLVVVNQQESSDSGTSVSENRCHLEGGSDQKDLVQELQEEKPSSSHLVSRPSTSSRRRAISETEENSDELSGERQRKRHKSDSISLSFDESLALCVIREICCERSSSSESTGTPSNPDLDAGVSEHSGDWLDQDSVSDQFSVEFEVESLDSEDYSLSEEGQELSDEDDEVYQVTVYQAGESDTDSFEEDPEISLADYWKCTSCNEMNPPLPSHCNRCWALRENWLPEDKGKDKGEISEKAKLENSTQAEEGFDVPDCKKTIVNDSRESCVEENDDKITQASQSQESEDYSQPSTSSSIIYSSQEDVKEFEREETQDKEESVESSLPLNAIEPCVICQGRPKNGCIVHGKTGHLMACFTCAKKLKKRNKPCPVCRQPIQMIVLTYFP

Consider `Cn1cc(C(C)(O)c2cc(F)c3c(c2)C(=O)N(Cc2ccc(Cl)c[n+]2[O-])[C@@]3(OCC2(CO)CC2)c2ccc(Cl)cc2)cn1` (single isomer, unassigned) [Example 407], for which the inhibition at 0.001 µM in assay [1] worked out at 62%. For the same compound, the negative-log IC50 (pIC50) in assay [2] (Homo sapiens, SJSA-1, 72 h) was 6.24.
As for `CCC(O)(c1cc(F)c2c(c1)C(=O)N(Cc1ccc(C#N)nc1)[C@@]2(O[C@H]1CCOC1)c1ccc(Cl)cc1)c1cn(C)cn1` (single isomer, unassigned) [Example 431], the 50% inhibitory concentration (IC50) in assay [3] turned out to be 0.11 µM.
Same read-out and setting: the same measure for `CCC(O)(c1cc(F)c2c(c1)C(=O)N(Cc1ncc(Cl)cn1)[C@@]2(O[C@H]1CCOC1)c1ccc(Cl)cc1)c1cn(C)cn1` (single isomer, unassigned) [Example 475]: 0.028 µM.
On the same count and under the same terms, the same measure for `CCC(O)(c1cc(F)c2c(c1)C(=O)N(Cc1ncc(Cl)cn1)[C@@]2(OCC1(CO)CC1)c1ccc(Cl)cc1)c1cn(C)cn1` (single isomer, unassigned) [Example 477]: 0.013 µM.
Regarding `CCC(O)(c1cc(F)c2c(c1)C(=O)N(Cc1ccc(C#N)cn1)[C@@]2(OC[C@@H](C)O)c1ccc(Cl)cc1)C1(F)CCOCC1` (single isomer, unassigned) [Example 498], in assay [1], the inhibition at 0.1 µM came to 32%. Further, the “SJSA1 (Protocol B) % at concentration” value in assay [2] came out at 96% at 10.
As to `CCC(O)(c1cc(F)c2c(c1)C(=O)N(Cc1ccc(C#N)cn1)[C@@]2(OCCO)c1ccc(Cl)cc1)C1(F)CCOCC1` (single isomer, unassigned) [Example 500], the inhibition at 0.1 µM in assay [1] was determined as 21%. The “SJSA1 (Protocol B) % at concentration” value in assay [2] was determined as 16% at 10.
As to `CCC(O)(c1cc(F)c2c(c1)C(=O)N(Cc1ccc(C#N)cn1)[C@@]2(O[C@H]1C[C@@H](O)C1)c1ccc(Cl)cc1)[C@H]1CC[C@H](O)CC1` (single isomer, unassigned) [Example 520], in assay [1], the inhibition at 0.03 µM amounted to 32%. Also, in assay [2] (read-out: SJSA1 IC50 (μM) (Protocol B), SJSA-1, Protocol B (CellTiter-Glo), 72 hrs), the IC50 was 3.9 µM.
Regarding `CN1CCC(C(C)(O)c2cc(F)c3c(c2)C(=O)N(Cc2ccc(Cl)cn2)[C@@]3(OCC2(CO)CC2)c2ccc(Cl)cc2)CC1` (single isomer, unassigned) [Example 555], in assay [1], the inhibition at 0.001 µM is 55%. Besides, the IC50 in assay [2] (setting [4]) was found to be 0.079 µM.
Turning to `CC(C)(O)c1cc(F)c2c(c1)C(=O)N(Cc1ccc(Cl)cn1)[C@@]2(OCC1(CNCCO)CC1)c1ccc(Cl)cc1` [Example 326, (3R)-3-(4-chlorophenyl)-2-[(5-chloropyridin-2-yl)methyl]-4-fluoro-3-[(1-{[(2-hydroxyethyl)amino]methyl}cyclopropyl)methoxy]-6-(2-hydroxypropan-2-yl)-2,3-dihydro-1H-isoindol-1-one], the inhibition at 0.03 µM in assay [1] worked out at 50%. The pIC50 in assay [2] (Homo sapiens, SJSA-1, 72 h) is 5.70.
Regarding `CC(C)(O)c1cc(F)c2c(c1)C(=O)N([C@H](c1ccc(Cl)cn1)C(O)CO)[C@@]2(OCC1(O)CC1)c1ccc(Cl)cc1` (stereo partly drawn) [Example 331, (3R)-3-(4-Chlorophenyl)-2-[(1R)-1-(5-chloropyridin-2-yl)-2,3-dihydroxypropyl]-4-fluoro-3-[(1-hydroxycyclopropyl)methoxy]-6-(2-hydroxypropan-2-yl)-2,3-dihydro-1H-isoindol-1-one], the inhibition at 0.03 µM in assay [1] was determined as 49%.
For `COc1ccc(CN2C(=O)c3cc(C(C)(O)c4cnn(C)c4)cc(F)c3[C@]2(OCC2(O)CC2)c2ccc(Cl)cc2)nc1` (stereo partly drawn) [Example 347, (3R)-3-(4-chlorophenyl)-4-fluoro-6-[1-hydroxy-1-(1-methyl-1H-pyrazol-4-yl)ethyl]-3-[(1-hydroxycyclopropyl)methoxy]-2-[(5-methoxypyridin-2-yl)methyl]-2,3-dihydro-1H-isoindol-1-one], the inhibition at 0.1 µM in assay [1] was 63%.
As for `CCC(O)(c1cc(F)c2c(c1)C(=O)N(Cc1ncc(C#N)cn1)[C@@]2(O[C@H]1CCOC1)c1ccc(Cl)cc1)[C@H]1CC[C@H](O)CC1` (stereo partly drawn) [Example 503, 2-{[(1R)-1-(4-chlorophenyl)-7-fluoro-5-{1-hydroxy-1-[trans-4-hydroxycyclohexyl]propyl}-3-oxo-1-[(3S)-oxolan-3-yloxy]-2,3-dihydro-1H-isoindol-2-yl]methyl}pyrimidine-5-carbonitrile], the inhibition at 0.001 µM in assay [1] is 87%. In addition, the IC50 in assay [2] (setting [4]) was 0.011 µM.
